Where “and” joins values, the source holds several entries; their conditions need not be identical. Identical values can stand only once. Entries after “also recorded” stand apart in the source; their conditions may differ.
Experiments:
[1] = tested on: HIV-Infected Human Monocyte-Derived Macrophages; assay: Reverse transcription rates in HIV-infected monocyte-derived macrophages; format: cell-based; settings: 1 to 10 uM; vs untreated and mock-infected MDM
Protocol: Primary human monocyte-derived macrophages (MDM) were prepared by culturing elutriated monocytes in RPMI-1640 medium, supplemented with 10% fetal bovine serum for 5 to 7 days on ultra-low attachment plates. MDMs were detached from the plates and plated onto tissue culture dishes or microscope culture chambers. MDMs in 6-well plates were infected with WT pNL(AD8) virus stocks and 2×10^6 reverse transcriptase cpm/well. Various incubated concentrations of platinum(IV) compound ranging from 1 to 10 uM were compared with untreated (no drug) and mock-infected MDM reverse transcription rates (counts per minute/microliter). Medium in the MDM cultures was changed every two days and an aliquot was reserved for reverse transcriptase (RT) activity at each time point (Gousset, 2008). […] This activity parallels that observed by Mark-Danieli et al. (2005) by certain zinc finger mutations of the nucleocapsid protein; other investigators have reported decreases or no changes in transcription rates with various mutations (Ramboarina, 2004; Houzet, 2008). […] Increasing the efficiency of reverse transcription initiation is detrimental to viral replication (Thomas and Gorelick, 2008). One role of nucleocapsid proteins is regulation of the transcription cadence in virally-infected cells.

Petaluma strain of FIV = assay: Plasma viremia by reverse transcription TaqMan PCR in FIV-infected cats; format: in vivo, domestic cat; settings: for Plasma Viremia: cats BR, CF
Excerpt: (§1) Currently available antiretrovirals require daily dosing, often in combination therapy. Two 12^+-year old specific-pathogen-free domestic female cats infected >5 years with the Petaluma strain of FIV were used in this study. The animals were housed individually in a climatized animal facility in accordance with standards, had ad libitum access to fresh water and food, and were sedated with Tiletamine/Zolazepam intramuscularly prior to any procedure. The cats weighed from 3-5 kg each. Three weeks before initiation of the treatment and at scheduled times, samples were collected for hematological and virological analyses. The cats received 9 intravenous doses of 3 mg/kg FX101 over 4.5 weeks (2× weekly).
Viral RNA extracted from plasma using the QIAmp viral RNA kit (QIAGEN), was reverse transcribed and amplified by reverse transcription TaqMan PCR. Reverse transcription and amplification conditions, and minimum detection limits of the assay (100-200 copies/mL plasma) are described elsewhere (Pistello, 2005). This measure represents viral presence in circulation, reflecting potential infectivity and productive synthesis of viral particles.
(§2) 0.1664 g FX101 was dissolved into 30 mL 15% DMSO/PBS and stirred overnight. This solution was sterile-filtered using a 20-mL syringe fitted with a […] Sarstedt filter. Each dose was administered under anesthesia, a 1.5 mL venous injection using a 2.5 mL syringe fitted with a 22G 1¼-in. needle (latex free). Feline BR weighed 3.2 kg at the start of the experiment and CF weighed 2.8 kg. Each received 8.3 mg drug with each dose, so dosages were 2.6 mg/kg for BR and 3.0 mg/kg for CF.
Table 8 illustrates measures of plasma viremia from the two test cats, “BR” and […] relative to the treatment period, receiving intravenous injections of FX101 twice weekly over four weeks. Each blood sample was taken immediately prior to drug injection for the scheduled dosing, August 23-September 30. This provided two pretreatment samples as baseline measures, 3 samples during treatment, and two post-treatment samples; note the addition of an unscheduled sample October 20. […] Following the last dosage, the first post-treatment results were ambiguous, with one cat experiencing a strong rebound and the other remaining below detection. This difference may be attributable to a uterine infection experienced by cat “BR” at this time—a historically frequent occurrence for this cat. It is well known that lipopolysaccharides (LPS) induce lentiviral replication, and this may therefore be related.

[2] = tested on: Petaluma strain of FIV (proviral DNA in PBMC); assay: Proviral load in peripheral blood mononuclear cells by TM-PCR; format: in vivo, domestic cat; settings: for Proviral Load in PBMC: cats BR, CF
Excerpt: as §1
Genomic DNA was extracted from the PBMC using the QIAamp DNA Blood Mini kit (QIAGEN). Proviral DNA was quantified from 0.4 ug genomic DNA by TM-PCR under the same conditions used for cDNA amplification except that the reaction mixture volume was 25 ul (n=3). The sensitivity of the assay was 100 copies/ug genomic DNA (Pistello, 2005). Proviral load varied over the course of treatment, but measured much lower than baseline pretreatment measures both 6 and 9 months later (27 and 38 weeks, respectively). This measure reflects viral integration into the host PBMCs, primed for production of viral particles with commencement of transcription. […] This is indicative of viral clearance and immune recovery, including apoptotic elimination of virally-infected cells. Viral reservoirs, such as those of macrophages and monocytes, have prevented eradication of lentiviruses (Nicastri, 2008).
as §2

IL-13 = assay: Feline blood serum immunofluorescent bead analysis: IL-13; format: in vivo, cat; settings: cats BR, CF
Protocol: (§3) Test sera samples from select felines were analyzed using the Rules-Based Medicine (Austin, Tex.) human multi-analyte for 90 measures from a single sample of less than 0.5 mL. The assay uses immunofluorescent beads to simultaneously measure antibody recognition to individually identifiable colored beads, each conjugated with a specific antibody, within a single well plate. Blood samples were drawn preceding (pretreatment) and following (post treatment) one-month FX101 treatment (from felines in Example 6), and are compared with two uninfected control felines. Human cross-reactive antibodies are commonly used for felines, and are relative rather than quantitative measures. Reductions in TNF-alpha and MMP-2 are evident in treated cats; TIMP-1 (Tissue Inhibitor of Metalloproteinases) is not associated with the downregulation of MMP-2. Both MMP-2 and MMP-9, as well as MCP-1, are considered important contributors to the penetration of virally-infected cells across the BBB (Webster, 2006). Additional comments follow the table.

MMP-2 = assay: Feline blood serum immunofluorescent bead analysis: MMP-2; format: in vivo, cat; settings: for MMP-2, relative blood serum measure: cats BR, CF
Protocol: as §3

TIMP-1 = assay: Feline blood serum immunofluorescent bead analysis: TIMP-1; format: in vivo, cat; settings: cats BR, CF
Protocol: as §3

[3] = Clinical observations, clinical chemistry, CBC and urinalysis in FIV cat studies; format: in vivo; settings: 9 intravenous doses of 3 mg/kg over 4.5 weeks; two FIV-infected cats
Excerpt: as §1

[4] = biological target: synthetic peptide F2, the carboxy-terminal zinc finger domain of HIV-1 (Human immunodeficiency virus type 1 group M subtype B, UniProt P12493); settings: 1:1 metal:F2, 10^−4 mole/liter in PBS
Protocol: The synthetic peptide F2, the carboxy-terminal zinc finger domain of HIV-1, was examined by ultraviolet-visible absorption spectroscopy for its interaction with various metals. […] Stock solutions of 2×10^−4 mole/liter F2 peptide were prepared in phosphate buffered saline (PBS) without calcium or magnesium; known stock concentrations of Fe(II), Co(II), Zn(II) and Pt(IV) metals were also prepared in PBS. One to one ratios of F2 peptide with each metal were individually combined at room temperature with final concentrations of 10^−4 mole/liter, and spectra were collected at various times using a Nanodrop Spectrophotometer (Thermo Scientific, Inc.) having a xenon flash lamp and requiring <2 microliters of sample deposited directly onto an optical lense.

[5] = Aug. 23, 2007 start of treatment period, blood collected prior to dosing
[6] = Jun. 12, 2008 (+38 wk) post treatment
[7] = Mar. 27, 2008 (+27 wk) post treatment
[8] = Oct. 20, 2007 (+4 wk) post treatment
[9] = post treatment (one-month FX101 treatment)

For `[NH2][Pt]([NH2])([Cl])([Cl])([Cl])[N+](=O)[O-]` [FX101, nitrotrichlorodiamminoPt(IV)], the reverse transcription rate [1] was “do not inhibit reverse transcription in this system, but rather increase this rate”, the “plasma viremia after treatment (in words)” value (Petaluma strain of FIV; 4 weeks to 9 months past the final dosage, no additional therapies) was “significantly lower viremia as compared with baseline measures; also recorded: undetectable plasma viremia” and the “Plasma Viremia” value (Petaluma strain of FIV; Aug. 2, 2007 pretreatment) was 2582 Viral RNA Copies/mL Plasma and 4282 Viral RNA Copies/mL Plasma. The “Plasma Viremia” value (Petaluma strain of FIV; [5]) was 8841 Viral RNA Copies/mL Plasma and 6974 Viral RNA Copies/mL Plasma, the “Plasma Viremia” value (Petaluma strain of FIV; Aug. 30, 2007 treatment period, i.v. twice weekly) was 1300 Viral RNA Copies/mL Plasma and 1249 Viral RNA Copies/mL Plasma and the “Plasma Viremia” value (Petaluma strain of FIV; Feb. 1, 2006 pretreatment) was 6557 Viral RNA Copies/mL Plasma and 3864 Viral RNA Copies/mL Plasma. The “Plasma Viremia” value (Petaluma strain of FIV; [6]) was <200 Viral RNA Copies/mL Plasma, the “Plasma Viremia” value (Petaluma strain of FIV; Mar. 1, 2006 pretreatment) was 3072 Viral RNA Copies/mL Plasma and 2819 Viral RNA Copies/mL Plasma and the “Plasma Viremia” value (Petaluma strain of FIV; [7]) was <200 Viral RNA Copies/mL Plasma. For the same compound, the “Plasma Viremia” value (Petaluma strain of FIV; [8]) was 898 Viral RNA Copies/mL Plasma and 1057 Viral RNA Copies/mL Plasma, the “Plasma Viremia” value (Petaluma strain of FIV; Sep. 4, 2007 treatment period, i.v. twice weekly) was <100 Viral RNA Copies/mL Plasma and the “Plasma Viremia” value (Petaluma strain of FIV; Sep. 20, 2007 treatment period, i.v. twice weekly) was <100 Viral RNA Copies/mL Plasma. The “plasma viremia during treatment (in words)” value (Petaluma strain of FIV; both cats, over two weeks of twice weekly i.v. injections) was “significant reduction in plasma viremia”, the “PBMC proviral load immediately following final dosing (in words)” value ([2]; 14 days after the final dosing, both animals) was “short increase” and the “Proviral Load in PBMC” value [2, 5] was 4472 proviral DNA copies/ug genomic DNA and 6867 proviral DNA copies/ug genomic DNA. The “Proviral Load in PBMC” value ([2]; Aug. 30, 2007 treatment period) was 5803 proviral DNA copies/ug genomic DNA and 6476 proviral DNA copies/ug genomic DNA, the “Proviral Load in PBMC” value [2, 6] was 1747 proviral DNA copies/ug genomic DNA and 1350 proviral DNA copies/ug genomic DNA and the “Proviral Load in PBMC” value [2, 7] was 1250 proviral DNA copies/ug genomic DNA and 1000 proviral DNA copies/ug genomic DNA. For the same compound, the “Proviral Load in PBMC” value ([2]; Oct. 4, 2007 (+2 wk) post treatment) was 14500 proviral DNA copies/ug genomic DNA and 14724 proviral DNA copies/ug genomic DNA, the “Proviral Load in PBMC” value [2, 8] was 4211 proviral DNA copies/ug genomic DNA and 2790 proviral DNA copies/ug genomic DNA and the “Proviral Load in PBMC” value ([2]; Sep. 20, 2007 treatment period) was 4152 proviral DNA copies/ug genomic DNA and 4660 proviral DNA copies/ug genomic DNA. The “proviral loads over subsequent months (in words)” value ([2]; months after treatment, vs pretreatment baseline) was “declined over subsequent months, even below pretreatment baseline measures”, the “IL-13, relative blood serum measure” value (IL-13; [9]) was 27 pg/mL and 34 pg/mL and the “IL-13, relative blood serum measure” value (IL-13; pretreatment) was 15 pg/mL and 12 pg/mL. The “MMP-2, relative blood serum measure” value (MMP-2; [9]) was 2070 ng/mL and 2120 ng/mL, the “MMP-2 in serum of treated cats (in words)” value (MMP-2; post vs pre one-month treatment) was “Reductions” and the “MMP-2, relative blood serum measure” value (MMP-2; pretreatment) was 3000 ng/mL and 3150 ng/mL. For the same compound, the “TIMP-1, relative blood serum measure” value (TIMP-1; [9]) was 9.0 ng/mL and 7.3 ng/mL, the “TIMP-1, relative blood serum measure” value (TIMP-1; pretreatment) was 6.5 ng/mL and 9.8 ng/mL and the “local reactions or adverse clinical indicators” value [3] was “No local reactions or adverse clinical indicators”. For the same compound, the “comparative absorption at 250 nm of metal with F2 peptide” value [4] was 0.118.
